This passage reports IC50 and Selectivity ratio results from ChEMBL document CHEMBL1129906, “Synthesis and binding affinity of new muscarinic ligands structurally related to oxotremorine” (Bioorg Med Chem Lett, 1997).

SMILES strings stand for the structures.

Usually IC50 stands for the concentration needed to halve the response being measured.

Experiment [1] concerns the target T1, Muscarinic acetylcholine receptor M2 (Rattus norvegicus, UniProt P10980).
T1 sequence (P10980 whole entry): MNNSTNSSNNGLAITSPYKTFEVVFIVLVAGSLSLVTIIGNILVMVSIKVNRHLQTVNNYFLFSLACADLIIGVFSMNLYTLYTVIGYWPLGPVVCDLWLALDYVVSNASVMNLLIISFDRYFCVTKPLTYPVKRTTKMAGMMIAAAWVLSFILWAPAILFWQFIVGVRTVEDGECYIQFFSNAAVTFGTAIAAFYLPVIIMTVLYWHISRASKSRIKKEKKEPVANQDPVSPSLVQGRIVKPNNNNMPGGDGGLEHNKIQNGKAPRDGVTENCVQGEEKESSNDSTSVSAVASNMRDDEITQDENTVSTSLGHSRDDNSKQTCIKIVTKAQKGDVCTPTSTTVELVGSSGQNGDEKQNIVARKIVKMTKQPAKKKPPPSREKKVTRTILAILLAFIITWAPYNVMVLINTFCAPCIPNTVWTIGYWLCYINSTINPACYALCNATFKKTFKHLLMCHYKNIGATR
Description: Muscarinic receptor M2 in rat heart using [3H]QNB (quinuclidinyl benzylate) radioligand as a M2 non-selective muscarinic receptor antagonist at a concentration of 0.12 nM.

A short description of experiment [2]: Selectivity for was determined by the displacement of [3H]PZ in rat brain preparations; expressed as ratio of M1/M2. The experiment is classed as tissue-based.
Experiment [3] deals with Muscarinic acetylcholine receptor. Put plainly: Compound was assessed for the binding affinity against muscarinic receptor subtypes in rat brain using [3H]OXO-M radioligand as a muscarinic receptor agonist at a concentration of 0.2 nM. Format: tissue-based.
The target in experiment [4] is T1, Muscarinic acetylcholine receptor M2. Description: Binding affinity against Muscarinic receptor M2 in rat brain using [3H]QNB (quinuclidinyl benzylate) radioligand at a concentration of 0.12 nM. Format: tissue-based.
The target of experiment [5] is T2, Muscarinic acetylcholine receptor M1 (Rattus norvegicus, UniProt P08482).
T2 sequence (P08482 whole entry): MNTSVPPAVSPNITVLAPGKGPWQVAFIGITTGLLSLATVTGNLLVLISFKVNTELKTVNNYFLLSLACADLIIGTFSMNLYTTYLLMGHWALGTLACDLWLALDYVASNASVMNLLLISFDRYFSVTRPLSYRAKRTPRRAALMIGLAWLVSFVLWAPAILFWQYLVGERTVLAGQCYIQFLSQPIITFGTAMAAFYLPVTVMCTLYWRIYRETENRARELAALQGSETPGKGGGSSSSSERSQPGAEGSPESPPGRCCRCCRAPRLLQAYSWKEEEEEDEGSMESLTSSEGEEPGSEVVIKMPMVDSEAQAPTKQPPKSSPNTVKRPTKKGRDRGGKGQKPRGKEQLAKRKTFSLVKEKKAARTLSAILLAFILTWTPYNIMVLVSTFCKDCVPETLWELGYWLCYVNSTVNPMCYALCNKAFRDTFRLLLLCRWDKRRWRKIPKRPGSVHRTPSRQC
Description: Binding affinity against Muscarinic receptor M1 in rat brain using [3H]-PZ (pirenzepine) radioligand at a concentration of 1 nM. Format: tissue-based.

With `CN(C)CC#CCN1OCCC1=O`, the IC50 stood at 1380 nM in experiment [1], 23 nM in experiment [3], 101000 nM in experiment [4] and 7100 nM in experiment [5]. The Selectivity ratio in experiment [2] was 41.2.
On the same counts, the results for `C[N+](C)(C)CC#CCN1OCCC1=O` are 74 nM, 0.8 nM, 17400 nM, 1300 nM and 140.
`O=C1CCON1CC#CCN1CCCC1`: the IC50 in experiment [1] came out at 215 nM; in experiment [3], 1.6 nM; in experiment [4], 2800 nM; in experiment [5], 78 nM.
On the same counts, the results for `C(#CCN1CCCC1)COC1=NOCC1` are 233 nM, 4 nM, 8600 nM and 412 nM.
As for `O=C1CCCN1CC#CCN1CCCC1` [OXOTREMORINE], the IC50 amounted to 84 nM in experiment [1], 2 nM in experiment [3], 2000 nM in experiment [4] and 100 nM in experiment [5].
